Laboratory results as given in PubChem BioAssay AID1259407 (Chemical Carcinogenesis Research Information System (CCRIS), 2018).
Calls of active or inactive are those of the source. The rule behind the calls is not given here.

System: CCRIS mutagenicity, Ames/micronucleus/aberration tests
Assay: CCRIS mutagenicity studies

`Cc1ccc(N)cc1` was tested, and the mutagenic call (Test System: AMES SALMONELLA TYPHIMURIUM, Strain/Indicator: TA97, Metabolic Activation: HAMSTER, LIVER, S-9, AROCLOR 1254 (10%), Method: PREINCUBATION) was “inactive; negative”, the mutagenic call (Test System: AMES SALMONELLA TYPHIMURIUM, Strain/Indicator: TA97, Metabolic Activation: HAMSTER, LIVER, S-9, AROCLOR 1254 (30%), Method: PREINCUBATION) was “inactive; negative” and the mutagenic call (Test System: AMES SALMONELLA TYPHIMURIUM, Strain/Indicator: TA97, Metabolic Activation: NONE, Method: PREINCUBATION) was “inactive; negative”. For the same compound, the mutagenic call (Test System: AMES SALMONELLA TYPHIMURIUM, Strain/Indicator: TA97, Metabolic Activation: RAT, LIVER, S-9, AROCLOR 1254 (10%), Method: PREINCUBATION) was “inactive; negative”, the mutagenic call (Test System: AMES SALMONELLA TYPHIMURIUM, Strain/Indicator: TA97, Metabolic Activation: RAT, LIVER, S-9, AROCLOR 1254 (30%), Method: PREINCUBATION) was “inactive; negative” and the mutagenic call (Test System: AMES SALMONELLA TYPHIMURIUM, Strain/Indicator: TA98, Metabolic Activation: HAMSTER, LIVER, S-9, AROCLOR 1254 (10%), Method: PREINCUBATION) was “inactive; negative”. For the same compound, the mutagenic call (Test System: AMES SALMONELLA TYPHIMURIUM, Strain/Indicator: TA98, Metabolic Activation: HAMSTER, LIVER, S-9, AROCLOR 1254 (30%), Method: PREINCUBATION) was “inactive; negative”, the mutagenic call (Test System: AMES SALMONELLA TYPHIMURIUM, Strain/Indicator: TA98, Metabolic Activation: HAMSTER, LIVER, S-9, SODIUM PHENOBARBITAL AND 5,6-BENZOFLAVONE, Method: PREINCUBATION) was “inactive; negative” and the mutagenic call (Test System: AMES SALMONELLA TYPHIMURIUM, Strain/Indicator: TA98, Metabolic Activation: NONE, Method: PREINCUBATION) was “inactive; negative”. For the same compound, the mutagenic call (Test System: AMES SALMONELLA TYPHIMURIUM, Strain/Indicator: TA98, Metabolic Activation: RAT LIVER S-9, PHENOBARBITAL AND BETA-NAPHTHOFLAVONE, Method: PREINCUBATION) was “inactive; negative”, the mutagenic call (Test System: AMES SALMONELLA TYPHIMURIUM, Strain/Indicator: TA98, Metabolic Activation: RAT, LIVER, S-9, AROCLOR 1254 (10%), Method: PREINCUBATION) was “inactive; negative” and the mutagenic call (Test System: AMES SALMONELLA TYPHIMURIUM, Strain/Indicator: TA98, Metabolic Activation: RAT, LIVER, S-9, AROCLOR 1254 (30%), Method: PREINCUBATION) was “inactive; negative”. The mutagenic call (Test System: AMES SALMONELLA TYPHIMURIUM, Strain/Indicator: TA100, Metabolic Activation: HAMSTER, LIVER, S-9, AROCLOR 1254 (10%), Method: PREINCUBATION) was “inactive; negative”, the mutagenic call (Test System: AMES SALMONELLA TYPHIMURIUM, Strain/Indicator: TA100, Metabolic Activation: HAMSTER, LIVER, S-9, AROCLOR 1254 (30%), Method: PREINCUBATION) was “active; positive” and the mutagenic call (Test System: AMES SALMONELLA TYPHIMURIUM, Strain/Indicator: TA100, Metabolic Activation: HAMSTER, LIVER, S-9, SODIUM PHENOBARBITAL AND 5,6-BENZOFLAVONE, Method: PREINCUBATION) was “inactive; negative”. The mutagenic call (Test System: AMES SALMONELLA TYPHIMURIUM, Strain/Indicator: TA100, Metabolic Activation: NONE, Method: PREINCUBATION) was “inactive; negative”, the mutagenic call (Test System: AMES SALMONELLA TYPHIMURIUM, Strain/Indicator: TA100, Metabolic Activation: RAT LIVER S-9, PHENOBARBITAL AND BETA-NAPHTHOFLAVONE, Method: PREINCUBATION) was “inactive; negative” and the mutagenic call (Test System: AMES SALMONELLA TYPHIMURIUM, Strain/Indicator: TA100, Metabolic Activation: RAT, LIVER, S-9, AROCLOR 1254 (10%), Method: PREINCUBATION) was “inactive; negative”. The mutagenic call (Test System: AMES SALMONELLA TYPHIMURIUM, Strain/Indicator: TA100, Metabolic Activation: RAT, LIVER, S-9, AROCLOR 1254 (30%), Method: PREINCUBATION) was “inactive; negative”, the mutagenic call (Test System: AMES SALMONELLA TYPHIMURIUM, Strain/Indicator: TA102, Metabolic Activation: HAMSTER, LIVER, S-9, SODIUM PHENOBARBITAL AND 5,6-BENZOFLAVONE, Method: PREINCUBATION) was “inactive; negative” and the mutagenic call (Test System: AMES SALMONELLA TYPHIMURIUM, Strain/Indicator: TA102, Metabolic Activation: NONE, Method: PREINCUBATION) was “inactive; negative”. For the same compound, the mutagenic call (Test System: AMES SALMONELLA TYPHIMURIUM, Strain/Indicator: TA104, Metabolic Activation: HAMSTER, LIVER, S-9, SODIUM PHENOBARBITAL AND 5,6-BENZOFLAVONE, Method: PREINCUBATION) was “inactive; negative”, the mutagenic call (Test System: AMES SALMONELLA TYPHIMURIUM, Strain/Indicator: TA104, Metabolic Activation: NONE, Method: PREINCUBATION) was “inactive; negative” and the mutagenic call (Test System: AMES SALMONELLA TYPHIMURIUM, Strain/Indicator: TA1535, Metabolic Activation: HAMSTER, LIVER, S-9, AROCLOR 1254 (10%), Method: PREINCUBATION) was “inactive; negative”. The mutagenic call (Test System: AMES SALMONELLA TYPHIMURIUM, Strain/Indicator: TA1535, Metabolic Activation: HAMSTER, LIVER, S-9, AROCLOR 1254 (30%), Method: PREINCUBATION) was “inactive; negative”, the mutagenic call (Test System: AMES SALMONELLA TYPHIMURIUM, Strain/Indicator: TA1535, Metabolic Activation: HAMSTER, LIVER, S-9, SODIUM PHENOBARBITAL AND 5,6-BENZOFLAVONE, Method: PREINCUBATION) was “inactive; negative” and the mutagenic call (Test System: AMES SALMONELLA TYPHIMURIUM, Strain/Indicator: TA1535, Metabolic Activation: NONE, Method: PREINCUBATION) was “inactive; negative”. The mutagenic call (Test System: AMES SALMONELLA TYPHIMURIUM, Strain/Indicator: TA1535, Metabolic Activation: RAT LIVER S-9, PHENOBARBITAL AND BETA-NAPHTHOFLAVONE, Method: PREINCUBATION) was “inactive; negative”, the mutagenic call (Test System: AMES SALMONELLA TYPHIMURIUM, Strain/Indicator: TA1535, Metabolic Activation: RAT, LIVER, S-9, AROCLOR 1254 (10%), Method: PREINCUBATION) was “inactive; negative” and the mutagenic call (Test System: AMES SALMONELLA TYPHIMURIUM, Strain/Indicator: TA1535, Metabolic Activation: RAT, LIVER, S-9, AROCLOR 1254 (30%), Method: PREINCUBATION) was “inactive; negative”. For the same compound, the mutagenic call (Test System: AMES SALMONELLA TYPHIMURIUM, Strain/Indicator: TA1537, Metabolic Activation: HAMSTER, LIVER, S-9, SODIUM PHENOBARBITAL AND 5,6-BENZOFLAVONE, Method: PREINCUBATION) was “inactive; negative”, the mutagenic call (Test System: AMES SALMONELLA TYPHIMURIUM, Strain/Indicator: TA1537, Metabolic Activation: NONE, Method: PREINCUBATION) was “inactive; negative” and the mutagenic call (Test System: AMES SALMONELLA TYPHIMURIUM, Strain/Indicator: TA1537, Metabolic Activation: RAT LIVER S-9, PHENOBARBITAL AND BETA-NAPHTHOFLAVONE, Method: PREINCUBATION) was “inactive; negative”. The mutagenic call (Test System: E. COLI, Strain/Indicator: WP2UVRA/PKM101, Metabolic Activation: HAMSTER, LIVER, S-9, SODIUM PHENOBARBITAL AND 5,6-BENZOFLAVONE, Method: PREINCUBATION) was “inactive; negative”, the mutagenic call (Test System: E. COLI, Strain/Indicator: WP2UVRA/PKM101, Metabolic Activation: NONE, Method: PREINCUBATION) was “inactive; negative” and the mutagenic call (Test System: E. COLI, Strain/Indicator: WP2UVRA, Metabolic Activation: HAMSTER, LIVER, S-9, SODIUM PHENOBARBITAL AND 5,6-BENZOFLAVONE, Method: PREINCUBATION) was “inactive; negative”. For the same compound, the mutagenic call (Test System: E. COLI, Strain/Indicator: WP2 UVRA, Metabolic Activation: NONE, Method: FLUCTUATION TEST) was “inactive; negative”, the mutagenic call (Test System: E. COLI, Strain/Indicator: WP2UVRA, Metabolic Activation: NONE, Method: PREINCUBATION) was “inactive; negative” and the mutagenic call (Test System: E.COLI, Strain/Indicator: WP2UVRA, Metabolic Activation: NONE, Method: PREINCUBATION) was “inactive; negative”. The mutagenic call (Test System: E.COLI, Strain/Indicator: WP2UVRA, Metabolic Activation: RAT LIVER S-9, PHENOBARBITAL AND BETA-NAPHTHOFLAVONE, Method: PREINCUBATION) was “inactive; negative”.
